According to ChEMBL document CHEMBL4196037, “Precise structures of fucosylated glycosaminoglycan and its oligosaccharides as novel intrinsic factor Xase inhibitors” (Eur J Med Chem, 2018):

Tests used:
[1] = molecular target: Coagulation factor IX/VIII (Homo sapiens, UniProt P00451+P00740); experiment: Inhibition of human intrinsic factor tenase using factor-10 as substrate preincubated for 2 mins followed by substrate addition for 1 min measured every 30 secs for 5 mins by chromogenic substrate S10a-11 based assay; type: protein-complex assay
Coagulation factor IX/VIII, sequence (P00451 20-759 limits assumed): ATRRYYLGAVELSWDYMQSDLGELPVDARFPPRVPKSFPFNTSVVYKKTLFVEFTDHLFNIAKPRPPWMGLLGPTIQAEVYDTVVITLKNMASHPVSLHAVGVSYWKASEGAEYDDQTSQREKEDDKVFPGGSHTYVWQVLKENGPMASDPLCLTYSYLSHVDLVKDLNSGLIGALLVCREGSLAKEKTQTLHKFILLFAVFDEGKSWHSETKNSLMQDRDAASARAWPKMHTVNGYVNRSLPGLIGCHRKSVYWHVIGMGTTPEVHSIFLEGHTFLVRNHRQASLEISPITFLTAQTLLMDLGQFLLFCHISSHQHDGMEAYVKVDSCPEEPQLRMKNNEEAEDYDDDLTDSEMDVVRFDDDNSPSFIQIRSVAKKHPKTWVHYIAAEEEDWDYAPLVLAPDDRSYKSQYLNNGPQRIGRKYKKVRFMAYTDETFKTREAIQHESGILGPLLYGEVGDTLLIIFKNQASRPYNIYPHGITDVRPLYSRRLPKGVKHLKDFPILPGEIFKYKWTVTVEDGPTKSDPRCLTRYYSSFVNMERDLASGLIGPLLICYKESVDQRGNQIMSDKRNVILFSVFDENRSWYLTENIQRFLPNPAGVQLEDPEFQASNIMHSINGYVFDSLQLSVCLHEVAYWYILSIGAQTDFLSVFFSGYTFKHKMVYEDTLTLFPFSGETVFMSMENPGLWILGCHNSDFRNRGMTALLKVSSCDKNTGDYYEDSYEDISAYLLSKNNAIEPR
Coagulation factor IX/VIII, sequence (P00451 1668-2351 limits assumed): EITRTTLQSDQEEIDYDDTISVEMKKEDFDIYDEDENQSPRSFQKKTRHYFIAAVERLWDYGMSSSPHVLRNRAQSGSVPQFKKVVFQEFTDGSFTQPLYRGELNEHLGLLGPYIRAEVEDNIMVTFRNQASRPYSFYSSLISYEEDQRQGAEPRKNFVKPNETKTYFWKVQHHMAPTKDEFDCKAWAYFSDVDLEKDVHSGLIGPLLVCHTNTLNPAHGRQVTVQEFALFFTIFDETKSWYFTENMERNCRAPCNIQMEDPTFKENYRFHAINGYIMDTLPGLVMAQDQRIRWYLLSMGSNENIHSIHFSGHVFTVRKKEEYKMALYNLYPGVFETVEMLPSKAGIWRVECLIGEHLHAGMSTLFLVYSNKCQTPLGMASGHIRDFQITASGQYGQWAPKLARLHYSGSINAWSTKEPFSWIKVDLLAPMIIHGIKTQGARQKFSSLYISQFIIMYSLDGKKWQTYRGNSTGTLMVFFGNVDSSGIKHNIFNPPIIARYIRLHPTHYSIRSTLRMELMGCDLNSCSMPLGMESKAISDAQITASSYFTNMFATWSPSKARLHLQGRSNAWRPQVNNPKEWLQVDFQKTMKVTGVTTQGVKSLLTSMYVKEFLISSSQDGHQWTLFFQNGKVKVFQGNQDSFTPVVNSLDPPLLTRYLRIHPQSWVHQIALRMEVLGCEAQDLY
Coagulation factor IX/VIII, sequence (P00740 47-191 limits assumed): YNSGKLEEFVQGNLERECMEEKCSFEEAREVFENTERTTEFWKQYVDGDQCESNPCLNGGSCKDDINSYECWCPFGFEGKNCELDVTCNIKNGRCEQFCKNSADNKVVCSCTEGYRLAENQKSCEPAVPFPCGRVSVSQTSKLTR
Coagulation factor IX/VIII, sequence (P00740 227-461 limits assumed): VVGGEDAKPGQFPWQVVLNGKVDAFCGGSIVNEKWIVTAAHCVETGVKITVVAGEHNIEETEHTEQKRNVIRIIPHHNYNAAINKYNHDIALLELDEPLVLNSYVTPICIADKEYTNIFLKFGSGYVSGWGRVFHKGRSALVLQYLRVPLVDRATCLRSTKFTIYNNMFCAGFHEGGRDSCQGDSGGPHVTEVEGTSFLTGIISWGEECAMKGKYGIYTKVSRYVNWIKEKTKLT

Plasma [2] = experiment: Anticoagulant activity in human plasma assessed as concentration required for increase in clotting time after 2 mins by TT assay; type: functional
Plasma [3] = experiment: Anticoagulant activity in human plasma assessed as concentration required for increase in clotting time after 2 mins by aPTT assay; type: functional
[4] = molecular target: Prothrombin (Homo sapiens) (UniProt P00734); experiment: Inhibition of antithrombin-dependant factor 2a (unknown origin) activity at 2000 ng/ml preincubated for 2 mins followed by chromogenic substrate CS-01 addition measured every 30 secs for 5 mins relative to control
Plasma [5] = experiment: Anticoagulant activity in human plasma assessed as concentration required for increase in clotting time after 2 mins by PT assay; type: functional
[6] = molecular target: Coagulation factor X (Bos taurus) (UniProt P00743); experiment: Inhibition of antithrombin-dependant bovine factor 10a activity at 2000 ng/ml preincubated for 1 mins followed by chromogenic substrate S10a-11 addition measured every 30 secs for 5 mins relative to control
Coagulation factor X (Bos taurus), sequence (P00743 41-180 limits assumed): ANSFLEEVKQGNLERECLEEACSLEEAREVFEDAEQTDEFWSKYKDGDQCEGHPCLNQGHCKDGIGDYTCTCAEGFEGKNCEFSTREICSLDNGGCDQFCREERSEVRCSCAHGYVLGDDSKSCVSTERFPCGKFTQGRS
Coagulation factor X (Bos taurus), sequence (P00743 234-492 limits assumed): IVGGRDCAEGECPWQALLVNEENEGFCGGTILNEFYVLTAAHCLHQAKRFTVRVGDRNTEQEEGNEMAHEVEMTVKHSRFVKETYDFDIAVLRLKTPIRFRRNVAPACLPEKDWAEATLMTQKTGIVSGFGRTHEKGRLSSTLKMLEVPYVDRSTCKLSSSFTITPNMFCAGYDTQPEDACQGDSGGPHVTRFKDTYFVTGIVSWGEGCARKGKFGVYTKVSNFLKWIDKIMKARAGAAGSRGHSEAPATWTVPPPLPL

SMILES: CC(=O)N[C@H]1[C@H](O[C@@H]([C@H](O[C@@H]2O[C@@H](C)[C@@H](OS(=O)(=O)[O-])[C@@H](O)[C@@H]2OS(=O)(=O)[O-])[C@@H](O)CO)[C@H](O)C(=O)[O-])O[C@H](COS(=O)(=O)[O-])[C@H](OS(=O)(=O)[O-])[C@@H]1O[C@@H]1OC(C(=O)[O-])=C[C@H](O[C@@H]2O[C@@H](C)[C@@H](OS(=O)(=O)[O-])[C@@H](O)[C@@H]2OS(=O)(=O)[O-])[C@H]1O.[Na+].[Na+].[Na+].[Na+].[Na+].[Na+].[Na+].[Na+]
- IC50 [1]: 1150 nM
- 2TT (Plasma [2]): >128 µg/mL
- 2aPTT (Plasma [3]): 106.9 µg/mL
- inhibition [4]: < 10%
- 2PT (Plasma [5]): >128 µg/mL
- inhibition [6]: < 10%

SMILES: CC(=O)N[C@@H](CO)[C@@H](O[C@@H]1OC(C(=O)[O-])=C[C@H](O[C@@H]2O[C@@H](C)[C@@H](OS(=O)(=O)[O-])[C@@H](O)[C@@H]2OS(=O)(=O)[O-])[C@H]1O)[C@@H](OS(=O)(=O)[O-])[C@H](O)COS(=O)(=O)[O-].[Na+].[Na+].[Na+].[Na+].[Na+]
- IC50 [1]: 2420 nM
- 2TT (Plasma [2]): >128 µg/mL
- 2aPTT (Plasma [3]): >128 µg/mL
- inhibition [4]: < 10%
- 2PT (Plasma [5]): >128 µg/mL
- inhibition [6]: < 10%

SMILES: CC(=O)N[C@H]1[C@H](O[C@@H]([C@H](O[C@@H]2O[C@@H](C)[C@@H](OS(=O)(=O)[O-])[C@@H](O)[C@@H]2OS(=O)(=O)[O-])[C@@H](O)CO)[C@H](O)C(=O)[O-])O[C@H](COS(=O)(=O)[O-])[C@H](OS(=O)(=O)[O-])[C@@H]1O[C@@H]1O[C@H](C(=O)[O-])[C@@H](O[C@@H]2O[C@H](COS(=O)(=O)[O-])[C@H](OS(=O)(=O)[O-])[C@H](O[C@@H]3OC(C(=O)[O-])=C[C@H](O[C@@H]4O[C@@H](C)[C@@H](OS(=O)(=O)[O-])[C@@H](O)[C@@H]4OS(=O)(=O)[O-])[C@H]3O)[C@H]2NC(C)=O)[C@H](O[C@@H]2O[C@@H](C)[C@@H](OS(=O)(=O)[O-])[C@@H](O)[C@@H]2OS(=O)(=O)[O-])[C@H]1O.[Na+].[Na+].[Na+].[Na+].[Na+].[Na+].[Na+].[Na+].[Na+].[Na+].[Na+].[Na+].[Na+]
- IC50 [1]: 98.7 nM
- 2TT (Plasma [2]): >128 µg/mL
- 2aPTT (Plasma [3]): 14.43 µg/mL
- inhibition [4]: < 10%
- 2PT (Plasma [5]): >128 µg/mL
- inhibition [6]: < 10%
